Results on six compounds are retold here after paper PMC12612871, “Novel 1,3-Diazepines as Nontoxic Corrosion Inhibitors” (ACS Omega, 2025).

Like-named read-outs stand apart in the source and are kept apart here.

In test [1] the test system is A549 human lung carcinoma cell line. Briefly: MTT cell viability assay, A549. Type of test: cell-based. The settings on record: 0.01 to 100 μM, read-out: IC50 (μM) ± S.D A549. As to the method:
(§1) The MDA-MB-231 human breast adenocarcinoma cell line (ATCC HTB-26), A549 human lung carcinoma cell line (ATCC CCL-185), TOV-21G human ovarian adenocarcinoma cell line (ATCC CRL-11730), and WI-26VA4 human lung fibroblast cell line (ATCC CCL-95.1) were cultured in RPMI-1640 medium supplemented with 10% fetal bovine serum (FBS) and gentamicin (100 μg/mL). Cells were maintained at 37 °C in a humidified atmosphere containing 5% CO2.
(§2) Cell viability was assessed using the MTT assay (3-[4,5-dimethylthiazol-2-yl]-2,5-diphenyl-tetrazolium bromide). Briefly, 100 μL of complete medium containing 1 × 10^4 cells was added to each well of a 96-well tissue culture plate. Cells were incubated at 37 °C in a humidified atmosphere with 5% CO2 for 24 h prior to treatment. Following medium removal, 100 μL of fresh medium containing the test compounds at concentrations ranging from 0.01 to 100 μM was added to each well, and cells were incubated for 48 h under the same conditions. All compounds were presolubilized in dimethyl sulfoxide (DMSO), and the final DMSO concentration in all treatments was maintained at ≤ 0.2% to avoid interference with cell viability.
(§3) After treatment, the medium was replaced with 100 μL of MTT solution (0.5 mg/mL) per well, followed by a 3 h incubation. Formazan crystals were dissolved by adding 100 μL of DMSO to each well, and absorbance was measured at 550 nm using a microplate reader (SpectraMax M5e, Molecular Devices, Sunnyvale, CA, USA). The percentage of growth inhibition was calculated as [1-(Abs of treated/Abs of control)]×100. All experiments were conducted in triplicate, and results are expressed as mean IC50 values, which were determined using OriginPro 8.0 software (OriginLab Corporation, Northampton, MA, USA).
Background: Tetrazolium assays rely on reduction of a dye to a coloured formazan, in cell work by metabolically active cells.

Test [2] has as its system MDA-MB-231 human breast adenocarcinoma cell line. The experiment in a line: MTT cell viability assay, MDA-MB-231. Type of test: cell-based. As to conditions: 0.01 to 100 μM, read-out: IC50 (μM) ± S.D MDA-MB-231. As to the method: as §1, §2, §3
Test [3] concerns TOV-21G human ovarian adenocarcinoma cell line. The experiment in a line: MTT cell viability assay, TOV-21G. As to conditions: 48 h, 0.01 to 100 μM, read-out: IC50 (μM) ± S.D TOV-21G. Type of test: cell-based. As to the method: as §1, §2, §3
Test [4] has as its system WI-26VA4 human lung fibroblast cell line. Briefly: MTT cell viability assay, WI-26VA4. Type of test: cell-based. As to conditions: 0.01 to 100 μM, read-out: IC50 (μM) ± S.D WI-26VA4. As to the method:
as §1, §2, §3

Test [5] can be described thus: Mass loss (gravimetric) corrosion inhibition test. As to conditions: 2 mmol L–1 inhibitor, 5% (v/v) DMSO in HCl 1 mol L–1, 4 h immersion, relative to solution without inhibitor. As to the method:
SAE 1020 steel plates, with a composition of C (0.18–0.23%), Mn (0.3–0.6%), P (0.03%), and S (0.05%), and dimensions of 2.5 × 2.5 × 0.13 cm, were polished sequentially using emery papers of increasing grit sizes (150, 220, 320, 400 and 600). After polishing, the plates were thoroughly rinsed with deionized (Milli-Q) water.
A control solution was prepared by dissolving 5% (v/v) dimethyl sulfoxide in HCl 1 mol L^–1. Inhibitor-containing solutions were prepared by adding 2 mmol L^–1 of the inhibitor to 5% (v/v) dimethyl sulfoxide in HCl 1 mol L^–1 using deionized (Milli-Q) water. SAE 1020 steel plates were immersed in these solutions for a duration of 4 h.
The gravimetric method was employed to evaluate corrosion resistance by weighing the steel plates before and after immersion in the aqueous HCl solution. The mass loss (w) was calculated as the difference between the average initial mass (m i) and final mass (m f) of each plate (eq ). This information was subsequently used to determine the inhibition efficiency (IE) according to eq , where w 0 and w represent the mass losses in the absence and presence of the inhibitor, respectively. All measurements were performed in triplicate to ensure accuracy and reliability, and the reported values correspond to the average of these three determinations. , 5 w=[…] 6 IE(%)=(w^0−w)/w^0.100

Regarding `N#CC(C#N)=C1NCCCCN1` [compound 11, 2-(1,3-Diazepan-2-ylidene)-malononitrile], the IC50 in test [1] (Homo sapiens, A549, 48 h) is greater than 100 µM; in test [2] (Homo sapiens, MDA-MB-231, 48 h), greater than 100 µM; in test [3] (Homo sapiens, TOV21G), greater than 100 µM; in test [4] (Homo sapiens, WI26VA4, 48 h), greater than 100 µM. Besides, the “IE (%) corrosion inhibition efficiency by mass loss” value in test [5] amounted to 88 ± 0.9%.

Regarding `COC(=O)C(C#N)=C1NCCCCN1` [compound 12, Methyl 2-cyano-2-(1,3-diazepan-2-ylidene)-acetate], the IC50 in test [1] (Homo sapiens, A549, 48 h) is greater than 100 µM; in test [2] (Homo sapiens, MDA-MB-231, 48 h) it was greater than 100 µM; in test [3] (Homo sapiens, TOV21G), greater than 100 µM; in test [4] (Homo sapiens, WI26VA4, 48 h), greater than 100 µM. The “IE (%) corrosion inhibition efficiency by mass loss” value in test [5] stood at 92 ± 0.6%.

Consider `N#CC(C(=O)c1ccccc1)=C1NCCCCN1` [compound 14, 2-(1,3-Diazepan-2-ylidene)-3-oxo-3-phenylpropanenitrile], for which the IC50 in test [2] (Homo sapiens, MDA-MB-231, 48 h) is greater than 100 µM; in test [3] (Homo sapiens, TOV21G), greater than 100 µM; in test [4] (Homo sapiens, WI26VA4, 48 h) it was greater than 100 µM. For the same compound, the “IE (%) corrosion inhibition efficiency by mass loss” value in test [5] came out at 94 ± 2.5%.

Take `CCOC(=O)C(C(=O)OCC)=C1NCCCCN1` [compound 13, Diethyl 2-(1,3-diazepan-2-ylidene)-malonate]: the IC50 was greater than 100 µM in test [1] (Homo sapiens, A549, 48 h); greater than 100 µM in test [2] (Homo sapiens, MDA-MB-231, 48 h); greater than 100 µM in test [3] (Homo sapiens, TOV21G); greater than 100 µM in test [4] (Homo sapiens, WI26VA4, 48 h). In addition, in test [5], the “IE (%) corrosion inhibition efficiency by mass loss” value is given as 19 ± 5.4%.

On to “2-(nitromethylene)-1,3-diazepine [compound 10]”, for which the IC50 in test [1] (48 h), in test [2] (48 h), in test [3] and in test [4] (48 h) was greater than 100 µM in each case. The “IE (%) corrosion inhibition efficiency by mass loss” value in test [5] was 91 ± 0.7%.

Consider `COc1cccc2c1C(=O)c1c(O)c3c(c(O)c1C2=O)C[C@@](O)(C(=O)CO)C[C@@H]3O[C@H]1C[C@H](N)[C@H](O)[C@H](C)O1` [doxorubicin, reference compound], for which the IC50 worked out at 0.67 ± 0.4 µM in test [1] (Homo sapiens, A549, 48 h); 2.6 ± 0.8 µM in test [2] (Homo sapiens, MDA-MB-231, 48 h); 8.3 ± 4 µM in test [3] (Homo sapiens, TOV21G); 7 ± 2 µM in test [4] (Homo sapiens, WI26VA4, 48 h).

By IC50 is commonly meant the concentration that inhibits the measured activity by half.
